Test results as given in PubChem BioAssay AID1949 (Southern Research Institute, 2009).
Values after ≈ are worked out from the molar mass of the structure shown. Results filed as inconclusive are left out. Active and inactive are the calls of the source. How the calls were made is not given here.

tested on: M. tuberculosis H37Rv growth inhibition; test: Confirmatory growth inhibition assay against Mycobacterium tuberculosis H37Rv, potency (AID 1949);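 further: bacteria grown 7 days with compound before Alamar blue readout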

Row | Structure (SMILES) | IC50
1 | CCn1c(/C=C/c2ccc([N+](=O)[O-])o2)nc2ccc(I)cc2c1=O | 2.04 µg/mL (≈ 4.67 µM)
2 | O=C(Oc1ccccc1)c1ccc(COC(=O)c2ccco2)cc1 | 2.69 µg/mL (≈ 8.35 µM)
3 | O=C(Oc1ccc(Cl)c2cccnc12)c1ccc(Cl)cc1Cl | 11.6 µg/mL (≈ 32.9 µM)
4 | CCOC(=O)c1c(CSc2ccccc2)n(-c2ccccc2)c2ccc(O)c(CN(C)C)c12 | 1.4 µg/mL (≈ 3.04 µM)
5 | Cc1cccc2sc(NC(=O)c3ccc(C(C)(C)C)cc3)nc12 | 1.39 µg/mL (≈ 4.28 µM)
6 | O=C(CS(=O)(=O)c1ccc2ccccc2c1)Nc1ccccc1Cl | 4.48 µg/mL (≈ 12.5 µM)
7 | CC(C)C(=O)Nc1ccc(C(=O)Oc2ccccc2)c(O)c1 | < 0.1 µg/mL
8 | O=C(NC1CCCCC1)c1cccc(N2C(=O)c3cccc4c([N+](=O)[O-])ccc(c34)C2=O)c1 | 0.39 µg/mL (≈ 0.879 µM)
9 | CCc1cc2c(=O)oc(-c3ccc(F)cc3)nc2s1 | > 50 µg/mL (inactive)
10 | O=C(CC(O)(C(F)(F)F)C(F)(F)F)Nc1ccc(Oc2ccccc2)cc1 | 7.49 µg/mL (≈ 19 µM)
11 | CCCCn1c(NCc2ccc(N(CC)CC)cc2)nc2ccccc21 | 11.2 µg/mL (≈ 32 µM)
12 | O=C(CC1(O)C(=O)N(CCc2ccccc2)c2ccc(Cl)cc21)c1ccc(Cl)s1 (stereo not drawn) | 5.18 µg/mL (≈ 11.6 µM)
13 | Cc1ccnc(N2C(=O)c3cccc4c([N+](=O)[O-])ccc(c34)C2=O)c1 | 1.4 µg/mL (≈ 4.2 µM)
14 | CCOC(=O)COc1ccc2c(C)c(CC(=O)OC)c(=O)oc2c1 | 35 µg/mL (≈ 105 µM)
15 | O=C(/C=C/c1cc([N+](=O)[O-])ccc1O)c1ccc(Cl)cc1 | 1.24 µg/mL (≈ 4.08 µM)
16 | NC(=O)CSc1nnc(SCc2ccc(Cl)cc2)s1 | 5.19 µg/mL (≈ 15.6 µM)
17 | CCOC(=O)CCc1c(C)c(C#N)c2[nH]c3ccccc3n2c1=O | < 0.1 µg/mL
18 | c1ccc(CCN(Cc2ccccc2)C2CCN(Cc3c[nH]c4ccccc34)CC2)cc1 | 2.91 µg/mL (≈ 6.87 µM)
19 | CSc1ncnc2c1ncn2CC(=O)Nc1ccc(C)c(C)c1 | < 0.1 µg/mL
20 | Cc1ccc(NC(=S)Nc2cc(C)[nH]n2)c(Cl)c1 | 22.2 µg/mL (≈ 79.2 µM)

Row | Structure (SMILES) | IC50
21 | O=[N+]([O-])c1ccc(O)c(-c2nc(-c3cccs3)c(-c3cccs3)[nH]2)c1 | 97 µg/mL (≈ 263 µM)
22 | COc1ccc(C(=O)NC(=S)Nc2ccc([N+](=O)[O-])cc2O)cc1Br | < 0.1 µg/mL
23 | COC(=O)CSc1nnc(-c2ccccc2C)o1 | 4.38 µg/mL (≈ 16.6 µM)
24 | COc1ccc(OC(C)C(=O)Nc2ccc(I)cc2)cc1 (stereo not drawn) | 0.32 µg/mL (≈ 0.806 µM)
25 | CC1=NN(C(=O)c2ccccc2)C(O)(c2ccncc2)C1 (stereo not drawn) | < 0.1 µg/mL
26 | COc1ccc(C(=O)CCNc2cccc(C)c2)cc1 | 8.33 µg/mL (≈ 30.9 µM)
27 | CCC(C)(C)C1CCc2sc3ncnc(N4CCN(C)CC4)c3c2C1 (stereo not drawn) | 6.39 µg/mL (≈ 17.8 µM)
28 | O=C(NCc1ccc(Cl)c(Cl)c1)C(Cl)Cl | 10.6 µg/mL (≈ 37.1 µM)
29 | COc1ccc(CCn2cnc3oc(-c4ccccc4)c(-c4ccccc4)c3c2=N)cc1OC | > 50 µg/mL (inactive)
30 | CC(C)(C)c1ccc(C(=O)Nc2ccc(S(=O)(=O)Nc3nccs3)cc2)cc1Br | 1.19 µg/mL (≈ 2.41 µM)
31 | Cc1sc(NC(=O)c2cc3ccccc3oc2=O)c(C(=O)OC(C)C)c1C | 0.66 µg/mL (≈ 1.71 µM)
32 | NC(=O)CSc1nnc(SCc2ccc(F)cc2)s1 | 9.02 µg/mL (≈ 28.6 µM)
33 | CCOC(=O)C1=C(c2ccc(C)cc2)C(=O)c2ccccc2C1=O | 3.03 µg/mL (≈ 9.46 µM)
34 | Cc1ccc(CNC(=O)c2ccc(C)cc2Cl)cc1 | > 50 µg/mL (inactive)
35 | CC(=O)c1ccc(NC(=O)Nc2cc(OCC(F)(F)F)cc(OCC(F)(F)C(F)F)c2)cc1 | 2.74 µg/mL (≈ 5.68 µM)
36 | Fc1ccc(CCNC(=S)Nc2ccc(Nc3ccccc3)cc2)cc1 | > 50 µg/mL (inactive)
37 | CCC1CCCCN1C(=S)NC(=O)c1ccc(F)cc1 (stereo not drawn) | 0.73 µg/mL (≈ 2.48 µM)
38 | O=C(Nc1nc2ccc(F)cc2s1)c1ccc([N+](=O)[O-])o1 | 5.11 µg/mL (≈ 16.6 µM)
39 | CC(C)(C)c1ccc(OCC(=O)Nc2ccc(F)c(Cl)c2)cc1 | 13.7 µg/mL (≈ 40.9 µM)
40 | COc1ccc(OC(C)C(=O)Nc2ccc(Cl)cc2C)cc1 (stereo not drawn) | 0.62 µg/mL (≈ 1.94 µM)

Row | Structure (SMILES) | IC50
41 | O=C(CCN1CCCCCC1)c1ccc(Cl)cc1 | 22.7 µg/mL (≈ 85.5 µM)
42 | CCOC(=O)c1cnc2c(C)c(C)ccc2c1NCc1ccco1 | 3.91 µg/mL (≈ 12.1 µM)
43 | Cc1cc(C)nc(/N=C(/N)Nc2cc(Oc3ccccc3)ccc2Cl)n1 | 4.87 µg/mL (≈ 13.2 µM)
44 | CCOc1ccc(Nc2nc(NCc3ccco3)c3ccccc3n2)cc1 | 1.36 µg/mL (≈ 3.77 µM)
45 | Oc1ccc(CNc2ccccc2O)cc1 | 1.02 µg/mL (≈ 4.74 µM)
46 | CSc1nsc(SCC(=O)N2CCN(c3ccccc3)CC2)n1 | 0.35 µg/mL (≈ 0.955 µM)
47 | Cc1cc(C)cc(-c2nc(-c3cccnc3)no2)c1 | 47.7 µg/mL (≈ 190 µM)
48 | Cc1ccc(Cl)cc1N1CCN(C(=O)C2CCN(C(=O)c3ccc(C(C)(C)C)cc3)CC2)CC1 | 3.38 µg/mL (≈ 7.01 µM)
49 | CCOC(=O)COc1ccc2c(=O)c(-c3ccccc3Cl)c(C)oc2c1C | 0.98 µg/mL (≈ 2.53 µM)
50 | Nc1cc(N)c2cc(-c3ccccc3)oc2c1 | > 50 µg/mL (inactive)
51 | CC(C)(C)c1ccc(C(=O)Nc2nc(-c3ccccc3)ns2)cc1 | 3.05 µg/mL (≈ 9.04 µM)
52 | COc1ccc(-c2nn(-c3ccccc3)cc2CNCc2ccccc2)cc1 | 6.04 µg/mL (≈ 16.3 µM)
53 | CCOC(=O)c1sc(NC(=S)NC2CCN(Cc3ccccc3)CC2)c(C(=O)OCC)c1C | > 50 µg/mL (inactive)
54 | Cc1cc(NC(=O)c2ccc([N+](=O)[O-])o2)c(C)cc1I | 0.46 µg/mL (≈ 1.19 µM)
55 | CCOc1ccc(C(=O)NC23CC4CC(CC(C4)C2)C3)cc1[N+](=O)[O-] | > 50 µg/mL (inactive)
56 | CN1CCN(c2ccc(NC(=O)c3sc4ccccc4c3Cl)cc2)CC1 | > 50 µg/mL (inactive)
57 | COC(=O)c1sccc1NC(=O)c1c(F)c(F)c(F)c(F)c1F | 0.21 µg/mL (≈ 0.598 µM)
58 | O=C(CC12CC3CC(CC(C3)C1)C2)NC(=S)Nc1ccc2c(c1)OCCO2 | > 50 µg/mL (inactive)
